Key:
primary human T cells = experiment: Multidimensional screen for inhibition of T cell activation (IL-2, IFN-γ secretion, CD25, CD69 expression); format: cell-based; conditions: electrophilic compounds 10 μM each (DMF 50 μM), 24 h, anti-CD3/anti-CD28 activation
Description: FIG. 4A-4D is an overview of a multidimensional screen to identify elaborated electrophilic compounds that suppress T cell activation. FIG. 4A is a workflow for T-cell activation screen. Primary human T cells were treated with a focused library of elaborated electrophilic compounds (10 μM, structures of compounds in FIG. 12), a positive control immunosuppressive compound (DMF, 50 μM), or DMSO under TCR-stimulating conditions in 96-well plates pre-coated with 5 μg/mL αCD3 and 2 μg/mL αCD28 for 24 h. T cell activation was measured using a combination of markers, including IL2 and IFNγ secretion, as well as surface expression of CD25 and CD69. T cell viability was measured by flow cytometry using a Fixable Near-IR LIVE/DEAD™ Cell Stain. Compounds were considered as active hits if they reduced IL2 cytokine production by >65% with <15% reduction in T cell viability in the cytotoxicity assay compared to DMSO control. […]
The levels of secreted IL2, IFNγ and TNFα after incubating T cells in the presence of DMSO or electrophilic compounds under TCR-stimulating conditions were measured using DuoSet ELISA cytokine kits (R&D Systems) in clear microplates (R&D Systems) according to manufacturer's instructions and read using a CLARIOstar (BMG Labtech) plate reader (450 nm). All cytokine concentrations were calculated according to the standard curve generated for each experiment.

NuRD complex = experiment: Western blot of NuRD complex members in T cells; format: cell-based, human; conditions: BPK-25 10 μM
Description: FIG. 7B is a scatter plot representation of protein abundance changes caused by BPK-25 (10 μM, 24 h) in two independent replicate experiments, with decreases in NuRD complex components highlighted in red. FIG. 7C is a heatmap of top proteins with decreased abundance in BPK-25-treated T cells showing that the subset of these proteins in the NuRD complex (asterisks) were largely unaltered by other active compounds and blocked in their degradation by co-treatment with the proteasome inhibitor MG132. […] FIG. 7E is a bar graph […] showing time-dependent reductions in NuRD complex members in human T cells treated with BPK-25 (10 μM). Left, representative western blots. Right, quantification of changes in protein. […]
BPK-25 (10 μM) treated expanded T cells were washed with PBS before permeabilization by rotation at 4° C. for 10 min with cytoplasm lysis buffer (10 mM sodium phosphate pH 7.4, 25 mM KCl, 1.5 mM MgCl2, 10% glycerol, and 0.025% NP40 supplemented with 1×HALT protease inhibitor cocktail (Thermo Scientific)). […] Insoluble material was precipitated by centrifugation (12,000 g, […]) and the protein concentration of nuclear extracts was measured using standard BCA assay (Thermo Scientific) and normalized. […] Blots were imaged using fluorescence-labeled secondary antibodies (LI-COR) on the Odyssey CLx Imager.

## COC(=O)/C=C/C(=O)OC [DMF, reference compound]
Primary human T cells
  suppress T cell activation: > 65%

## C=CC(=O)N(Cc1cccc(Cl)n1)c1ccc(C(=O)Nc2ccccc2)nc1 [BPK-25]
NuRD complex
  time of initial changes in NuRD complex proteins: 6 h
  time of maximal effects on NuRD complex proteins: 24 h

Reference: US20240131032A1, “AN ACTIVITY-GUIDED MAP OF ELECTROPHILE-CYSTEINE INTERACTIONS IN PRIMARY HUMAN IMMUNE CELLS” (The Scripps Research Institute, priority 2019, published 2024)
